# Source: ChEMBL document CHEMBL4823289, “Conformational-Analysis-Guided Discovery of 2,3-Disubstituted Pyridine IDO1 Inhibitors” (ACS Med Chem Lett, 2021)
# pIC50: −log10 of the molar value.
# How the values were obtained:
# [1] = test system: UDP-glucuronosyltransferases (UGT); assay: Metabolic stability assessed as rat UGT-mediated metabolism by measuring half life; format: ADME
# [2] = Oral bioavailability in rat at 10 mg/kg; format: ADME, organism-based; settings: in vivo
# [3] = Oral bioavailability in mouse at 10 mg/kg; format: ADME, organism-based; settings: in vivo
# [4] = test system: Cytochrome P450 (CYP); assay: Metabolic stability assessed as cynomolgus monkey CYP-mediated metabolism by measuring half life; format: ADME, Macaca fascicularis
# [5] = Metabolic stability in mouse liver microsomes assessed as parent compound remaining at 0.5 uM after 10 mins incubation by LC-MS/MS analysis relative to control; format: ADME, Microsome; settings: read-out: Activity
# [6] = Volume of steady state distribution in cynomolgus monkey at 1 mg/kg, iv; format: ADME, organism-based, Macaca fascicularis; settings: in vivo, read-out: Vdss
# [7] = target: hERG (KCNH2) (Homo sapiens, UniProt Q12809); assay: Inhibition of hERG (unknown origin) at 30 uM relative to control
# Chain of hERG (KCNH2) (Q12809 whole entry): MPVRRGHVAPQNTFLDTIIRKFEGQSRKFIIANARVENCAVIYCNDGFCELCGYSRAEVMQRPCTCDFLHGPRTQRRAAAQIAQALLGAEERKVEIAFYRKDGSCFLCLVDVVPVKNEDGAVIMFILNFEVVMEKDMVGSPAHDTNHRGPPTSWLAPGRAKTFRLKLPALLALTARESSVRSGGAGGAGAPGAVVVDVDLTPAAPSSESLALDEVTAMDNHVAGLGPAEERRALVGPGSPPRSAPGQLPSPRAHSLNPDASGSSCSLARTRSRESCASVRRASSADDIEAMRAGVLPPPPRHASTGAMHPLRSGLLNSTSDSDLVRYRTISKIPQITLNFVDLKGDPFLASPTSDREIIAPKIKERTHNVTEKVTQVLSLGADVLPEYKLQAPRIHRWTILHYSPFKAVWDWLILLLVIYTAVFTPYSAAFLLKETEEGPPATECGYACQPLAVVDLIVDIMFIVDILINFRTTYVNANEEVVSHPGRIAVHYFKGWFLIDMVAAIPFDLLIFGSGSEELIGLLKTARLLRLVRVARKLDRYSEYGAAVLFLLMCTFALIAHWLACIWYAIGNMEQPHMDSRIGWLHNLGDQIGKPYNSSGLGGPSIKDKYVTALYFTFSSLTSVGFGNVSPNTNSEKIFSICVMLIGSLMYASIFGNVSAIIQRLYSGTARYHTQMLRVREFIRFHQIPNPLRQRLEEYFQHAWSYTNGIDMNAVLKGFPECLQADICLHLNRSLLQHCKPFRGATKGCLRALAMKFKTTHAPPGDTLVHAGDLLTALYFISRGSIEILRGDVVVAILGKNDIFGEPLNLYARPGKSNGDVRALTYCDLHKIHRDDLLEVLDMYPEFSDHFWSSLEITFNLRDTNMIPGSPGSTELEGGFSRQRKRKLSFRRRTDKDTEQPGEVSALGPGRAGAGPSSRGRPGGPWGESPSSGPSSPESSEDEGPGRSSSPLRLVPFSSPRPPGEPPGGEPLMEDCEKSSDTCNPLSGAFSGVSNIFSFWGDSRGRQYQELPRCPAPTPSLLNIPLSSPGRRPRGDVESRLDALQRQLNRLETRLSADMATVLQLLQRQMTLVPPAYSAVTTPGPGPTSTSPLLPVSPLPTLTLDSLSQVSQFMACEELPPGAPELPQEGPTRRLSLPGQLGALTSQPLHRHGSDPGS
# [8] = AUC (0 to 24 hrs) in nu/nu mouse xenograft model xenografted with human SK-OV-3 cells measured in tumor at 180 mg/kg, po QD; format: ADME, organism-based; parameters: time < 24 hr, route oral, dose 180 mg/kg
# [9] = Apparent permeability of the compound at pH 7.4 by PAMPA; format: ADME
# [10] = AUC in cynomolgus monkey at 5 mg/kg, po; format: ADME, organism-based, Macaca fascicularis; parameters: dose 5 mg/kg; settings: in vivo
# [11] = test system: UDP-glucuronosyltransferases (UGT); assay: Metabolic stability assessed as dog UGT-mediated metabolism by measuring half life; format: ADME, Canis lupus familiaris
# [12] = Drug metabolism in dog hepatocytes assessed as demethylated metabolite formation; format: ADME, cell-based, Canis lupus familiaris, Hepatocyte
# [13] = target: Voltage-gated inwardly rectifying potassium channel KCNH2 (Homo sapiens, UniProt Q12809); assay: Inhibition of hERG (unknown origin)
# Chain of Voltage-gated inwardly rectifying potassium channel KCNH2 (Q12809 whole entry): as above
# [14] = AUC (0 to 24 hrs) in human SK-OV-3 cells xenografted in nu/nu mouse xenograft model measured in tumor at 120 mg/kg, po QD; format: ADME, organism-based; parameters: time < 24 hr, route oral, dose 120 mg/kg
# [15] = test system: Cytochrome P450 (CYP); assay: Metabolic stability assessed as dog CYP-mediated metabolism by measuring half life; format: ADME, Canis lupus familiaris
# [16] = target: Cytochrome P450 2C19 (Homo sapiens, UniProt P33261); assay: Inhibition of human CYP2C19
# Chain of Cytochrome P450 2C19 (P33261 whole entry): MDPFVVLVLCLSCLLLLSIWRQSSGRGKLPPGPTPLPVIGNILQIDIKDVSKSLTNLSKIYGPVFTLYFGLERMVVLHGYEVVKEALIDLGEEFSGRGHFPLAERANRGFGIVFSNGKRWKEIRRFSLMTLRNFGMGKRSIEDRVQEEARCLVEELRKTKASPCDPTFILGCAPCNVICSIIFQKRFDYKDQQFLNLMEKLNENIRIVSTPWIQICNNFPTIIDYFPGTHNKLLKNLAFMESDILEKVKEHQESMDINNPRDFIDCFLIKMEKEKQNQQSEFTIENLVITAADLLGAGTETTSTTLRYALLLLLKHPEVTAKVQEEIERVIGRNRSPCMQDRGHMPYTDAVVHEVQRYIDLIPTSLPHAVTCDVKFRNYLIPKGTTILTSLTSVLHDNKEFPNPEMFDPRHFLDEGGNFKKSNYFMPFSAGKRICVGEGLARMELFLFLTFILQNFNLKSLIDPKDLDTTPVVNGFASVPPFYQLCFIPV
# [17] = Clearance in dog at 1 mg/kg, iv; format: ADME, organism-based, Canis lupus familiaris; settings: in vivo
# [18] = AUC (0 to 24 hrs) in human SK-OV-3 cells xenografted in nu/nu mouse xenograft model measured in tumor at 60 mg/kg, po QD; format: ADME, organism-based; parameters: time < 24 hr, route oral, dose 60 mg/kg
# [19] = target: Cytochrome P450 2C9 (Homo sapiens, UniProt P11712); assay: Inhibition of human CYP2C9
# Chain of Cytochrome P450 2C9 (P11712 whole entry): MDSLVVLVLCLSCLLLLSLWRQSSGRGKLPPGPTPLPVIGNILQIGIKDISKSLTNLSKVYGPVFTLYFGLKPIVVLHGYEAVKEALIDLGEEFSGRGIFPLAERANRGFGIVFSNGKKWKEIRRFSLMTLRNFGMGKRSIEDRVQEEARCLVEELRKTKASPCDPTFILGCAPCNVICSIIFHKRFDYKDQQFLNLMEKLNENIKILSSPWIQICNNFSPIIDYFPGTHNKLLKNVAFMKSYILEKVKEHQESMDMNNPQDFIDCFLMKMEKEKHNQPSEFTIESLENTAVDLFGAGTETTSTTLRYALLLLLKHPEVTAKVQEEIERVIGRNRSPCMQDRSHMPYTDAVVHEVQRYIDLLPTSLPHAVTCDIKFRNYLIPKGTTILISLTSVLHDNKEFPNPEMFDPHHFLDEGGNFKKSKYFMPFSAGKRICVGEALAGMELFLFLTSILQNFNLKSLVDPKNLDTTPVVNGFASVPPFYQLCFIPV
# [20] = target: Indoleamine 2,3-dioxygenase 1 (Mus musculus, UniProt P28776); assay: Inhibition of IDO1 in IFNgamma-stimulated mouse M109 cells preincubated for 2 hrs followed by recombinant murine IFNgamma stimulation and measured after 18 hrs by fluorescence based microplate reader assay; format: cell-based
# Chain of Indoleamine 2,3-dioxygenase 1 (Mus musculus, UniProt P28776) (P28776 whole entry): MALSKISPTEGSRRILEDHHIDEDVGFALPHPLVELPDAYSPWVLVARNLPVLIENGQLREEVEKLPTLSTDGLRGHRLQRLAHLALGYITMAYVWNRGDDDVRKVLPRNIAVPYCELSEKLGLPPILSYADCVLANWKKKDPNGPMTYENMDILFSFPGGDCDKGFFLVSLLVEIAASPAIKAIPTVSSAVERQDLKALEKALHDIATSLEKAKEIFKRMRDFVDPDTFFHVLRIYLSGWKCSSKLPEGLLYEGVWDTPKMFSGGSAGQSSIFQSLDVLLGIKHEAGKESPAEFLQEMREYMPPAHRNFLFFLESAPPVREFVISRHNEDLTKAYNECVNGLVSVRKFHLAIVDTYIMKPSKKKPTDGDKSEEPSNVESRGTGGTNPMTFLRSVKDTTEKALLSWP
# [21] = target: T1, Indoleamine 2,3-dioxygenase 1 (Homo sapiens, UniProt P14902); assay: Inhibition of IDO1 in IFNgamma/LPS-stimulated human whole blood preincubated for 4 hrs followed by IFNgamma/LPS stimulation and incubated for 18 hrs by Rapid-fire mass spectrometry analysis; format: tissue-based
# T1 sequence (P14902 whole entry): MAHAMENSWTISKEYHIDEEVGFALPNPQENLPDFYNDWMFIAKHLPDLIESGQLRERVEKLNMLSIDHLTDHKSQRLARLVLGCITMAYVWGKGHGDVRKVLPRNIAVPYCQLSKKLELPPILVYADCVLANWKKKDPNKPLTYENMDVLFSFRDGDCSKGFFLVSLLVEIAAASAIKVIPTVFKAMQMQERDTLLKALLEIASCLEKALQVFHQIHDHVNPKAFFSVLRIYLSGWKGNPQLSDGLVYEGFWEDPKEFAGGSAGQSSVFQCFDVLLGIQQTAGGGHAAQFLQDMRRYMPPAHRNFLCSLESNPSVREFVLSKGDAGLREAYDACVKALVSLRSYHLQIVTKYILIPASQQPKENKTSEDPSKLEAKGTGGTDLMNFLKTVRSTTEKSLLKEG
# [22] = AUC in dog at 1 mg/kg, iv; format: ADME, organism-based, Canis lupus familiaris; parameters: dose 1 mg/kg; settings: in vivo
# [23] = AUC in rat at 0.5 mg/kg, iv; format: ADME, organism-based; parameters: dose 0.5 mg/kg; settings: in vivo
# [24] = target: Cytochrome P450 (CYP) (Homo sapiens, UniProt P04798+P05177+P05181+P08684+P10632+P10635+P11509+P11712+P13584+P20813+P20815+P20853+P24462+P24903+P33260+P33261+P51589+P78329+P98187+Q02928+Q08477+Q16678+Q16696+Q5TCH4+Q6VVX0+Q7Z449+Q8TAV3+Q96SQ9+Q9HB55); assay: Metabolic stability assessed as human CYP-mediated metabolism by measuring half life; format: ADME, protein assay
# [25] = Metabolic stability in human liver microsomes assessed as parent compound remaining at 0.5 uM after 10 mins incubation by LC-MS/MS analysis relative to control; format: ADME, Microsome; settings: read-out: Activity
# [26] = Volume of steady state distribution in mouse at 1 mg/kg, iv; format: ADME, organism-based; settings: in vivo, read-out: Vdss
# [27] = AUC in mouse at 1 mg/kg, iv; format: ADME, organism-based; parameters: dose 1 mg/kg; settings: in vivo
# [28] = Metabolic stability in rat liver microsomes assessed as parent compound remaining at 0.5 uM after 10 mins incubation by LC-MS/MS analysis relative to control; format: ADME, Microsome; settings: read-out: Activity
# [29] = Drug metabolism in human hepatocytes assessed as demethylated metabolite formation; format: ADME, cell-based, Hepatocyte
# [30] = AUC (0 to 24 hrs) in human SK-OV-3 cells xenografted in nu/nu mouse xenograft model measured in tumor at 20 mg/kg, po QD; format: ADME, organism-based; parameters: time < 24 hr, route oral, dose 20 mg/kg
# [31] = Drug metabolism in rat hepatocytes assessed as demethylated metabolite formation; format: ADME, cell-based, Hepatocyte
# [32] = Half life in mouse at 1 mg/kg, iv; format: ADME, organism-based; settings: in vivo
# [33] = Volume of steady state distribution in rat at 0.5 mg/kg, iv; format: ADME, organism-based; settings: in vivo, read-out: Vdss
# [34] = Half life in dog at 1 mg/kg, iv; format: ADME, organism-based, Canis lupus familiaris; settings: in vivo
# [35] = Half life in cynomolgus monkey at 1 mg/kg, iv; format: ADME, organism-based, Macaca fascicularis; settings: in vivo
# [36] = test system: UDP-glucuronosyltransferases (UGT); assay: Metabolic stability assessed as cynomolgus monkey UGT-mediated metabolism by measuring half life; format: ADME, Macaca fascicularis
# [37] = AUC in cynomolgus monkey at 1 mg/kg, iv; format: ADME, organism-based, Macaca fascicularis; parameters: dose 1 mg/kg; settings: in vivo
# [38] = test system: Cytochrome P450 (CYP); assay: Metabolic stability assessed as rat CYP-mediated metabolism by measuring half life; format: ADME
# [39] = target: T1, Indoleamine 2,3-dioxygenase 1; assay: Inhibition of IDO1 in IFNgamma-stimulated human HeLa cells preincubated for 2 hrs followed by recombinant human IFNgamma stimulation and measured after 18 hrs by fluorescence based microplate reader assay
# [40] = Apparent permeability across basolateral to apical side in human Caco-2 cells; format: ADME, cell-based
# [41] = Oral bioavailability in cynomolgus monkey at 5 mg/kg; format: ADME, organism-based, Macaca fascicularis; settings: in vivo
# [42] = Drug metabolism in cynomolgus monkey hepatocytes assessed as demethylated metabolite formation; format: ADME, cell-based, Macaca fascicularis, Hepatocyte
# [43] = target: UDP-glucuronosyltransferases (UGT) (Homo sapiens, UniProt O60656+O75310+O75795+P06133+P0DTE4+P0DTE5+P16662+P19224+P22309+P22310+P35503+P35504+P36537+P54855+Q6UWM9+Q9BY64+Q9HAW7+Q9HAW8+Q9HAW9); assay: Metabolic stability assessed as human UGT-mediated metabolism by measuring half life; format: ADME, protein assay
# [44] = Apparent permeability across apical to basolateral side in human Caco-2 cells; format: ADME, cell-based
# [45] = target: T2, Cytochrome P450 2C8 (Homo sapiens, UniProt P10632); assay: Inhibition of human CYP2C8
# T2 sequence (P10632 whole entry): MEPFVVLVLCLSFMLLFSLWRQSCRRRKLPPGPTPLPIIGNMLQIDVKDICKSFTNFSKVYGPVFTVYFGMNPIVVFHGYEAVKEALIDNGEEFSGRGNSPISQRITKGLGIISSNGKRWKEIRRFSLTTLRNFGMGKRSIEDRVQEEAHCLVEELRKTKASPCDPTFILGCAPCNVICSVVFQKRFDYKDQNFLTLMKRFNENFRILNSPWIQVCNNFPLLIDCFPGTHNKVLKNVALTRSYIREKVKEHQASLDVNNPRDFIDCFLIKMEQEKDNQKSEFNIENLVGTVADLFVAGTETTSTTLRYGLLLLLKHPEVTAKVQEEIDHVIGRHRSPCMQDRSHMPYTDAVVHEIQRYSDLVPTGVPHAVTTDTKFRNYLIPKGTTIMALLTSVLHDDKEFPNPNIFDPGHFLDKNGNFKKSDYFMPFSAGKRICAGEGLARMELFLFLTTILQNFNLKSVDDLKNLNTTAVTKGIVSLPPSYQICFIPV
# [46] = Volume of steady state distribution in dog at 1 mg/kg, iv; format: ADME, organism-based, Canis lupus familiaris; settings: in vivo, read-out: Vdss
# [47] = test system: UDP-glucuronosyltransferases (UGT); assay: Metabolic stability assessed as mouse UGT-mediated metabolism by measuring half life; format: ADME
# [48] = AUC in mouse at 10 mg/kg, po; format: ADME, organism-based; parameters: dose 10 mg/kg; settings: in vivo
# [49] = Clearance in rat at 0.5 mg/kg, iv; format: ADME, organism-based; settings: in vivo
# [50] = Oral bioavailability in dog at 5 mg/kg; format: ADME, organism-based, Canis lupus familiaris; settings: in vivo
# [51] = Half life in rat at 0.5 mg/kg, iv; format: ADME, organism-based; settings: in vivo
# [52] = test system: Cytochrome P450 (CYP); assay: Metabolic stability assessed as mouse CYP-mediated metabolism by measuring half life; format: ADME
# [53] = AUC in rat at 10 mg/kg, po; format: ADME, organism-based; parameters: dose 10 mg/kg; settings: in vivo
# [54] = Clearance in mouse at 1 mg/kg, iv; format: ADME, organism-based; settings: in vivo
# [55] = AUC in dog at 5 mg/kg, po; format: ADME, organism-based, Canis lupus familiaris; parameters: dose 5 mg/kg; settings: in vivo
# [56] = Clearance in cynomolgus monkey at 1 mg/kg, iv; format: ADME, organism-based, Macaca fascicularis; settings: in vivo
compound,measurement,setting,value
CC[C@@H](NC(=O)c1ccc(OC)nc1)[C@H]1CC[C@@H](c2ccnc(OC)c2C(F)F)CC1,half-life,[1],> 2 h
same,bioavailability,[2],34%
same,bioavailability,[3],33%
same,half-life,[4],3 min
same,"remaining at 10 min, 0.5 µM",[5],60%
same,Vd,[6],4.5 L/kg
same,inhibition at 30 µM,[7],61%
same,AUC at 24 h,[8],13 µM·h
same,Papp,[9],107 ×10⁻⁶ cm/s
same,AUC,[10],0.029 µM·h
same,half-life,[11],> 2 h
same,Drug metabolism,[12],Metabolite_Detected
same,pIC50,[13],4.76
same,AUC at 24 h,[14],13 µM·h
same,half-life,[15],7 min
same,pIC50,[16],5.02
same,clearance,[17],18 mL/min/kg
same,AUC at 24 h,[18],9.2 µM·h
same,pIC50,[19],5.72
same,pIC50,[20],7.85
same,pIC50,[21],8.64
same,AUC,[22],2.3 µM·h
same,AUC,[23],1.3 µM·h
same,half-life,[24],0.533 h
same,"remaining at 10 min, 0.5 µM",[25],87%
same,Vd,[26],6.2 L/kg
same,AUC,[27],1.2 µM·h
same,"remaining at 10 min, 0.5 µM",[28],90%
same,Drug metabolism,[29],Metabolite_Detected
same,AUC at 24 h,[30],7.9 µM·h
same,Drug metabolism,[31],Metabolite_Detected
same,half-life,[32],5 h
same,Vd,[33],4 L/kg
same,half-life,[34],14 h
same,half-life,[35],11 h
same,half-life,[36],> 2 h
same,AUC,[37],1.3 µM·h
same,half-life,[38],0.333 h
same,pIC50,[39],8.70
same,Papp B→A,[40],5.6 ×10⁻⁶ cm/s
same,F,[41],4.5%
same,Drug metabolism,[42],Metabolite_Detected
same,half-life,[43],> 2 h
same,Papp A→B,[44],12.2 ×10⁻⁶ cm/s
same,pIC50,[45],5.40
same,Vd,[46],9 L/kg
same,half-life,[47],> 2 h
same,AUC,[48],3.9 µM·h
same,clearance,[49],15 mL/min/kg
same,bioavailability,[50],28%
same,half-life,[51],7.1 h
same,half-life,[52],0.183 h
same,AUC,[53],8.7 µM·h
same,clearance,[54],33 mL/min/kg
same,AUC,[55],3.2 µM·h
same,clearance,[56],29 mL/min/kg
